Results published in patent US9693556B2, “Herbicidal pyridazinone derivatives” (SYNGENTA LIMITED, priority 2011, dated 2017).

Assays:
Format in all cases: in vivo
[1] = system: Alopecurus myosuroides (ALOMY); test: Pre-emergence herbicidal glasshouse test on Alopecurus myosuroides; settings: pre-emergence; 1000 g/h; evaluated after 13 days
Method in brief: (§1)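 Herbicidal damage was rated 13 days after treatment on a five-point scale, where 5 denotes 80-100% and 1 denotes 0-19% damage. Spraying at 1000 g/h followed sowing by one day (pre-emergence) or eight days (post-emergence).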

[2] = system: Setaria faberi (SETFA); test: Pre-emergence herbicidal glasshouse test on Setaria faberi; settings: pre-emergence; 1000 g/h; evaluated after 13 days
Method in brief: as §1

[3] = system: Echinochloa crus-galli (ECHCG); test: Pre-emergence herbicidal glasshouse test on Echinochloa crus-galli; settings: pre-emergence; 1000 g/h; evaluated after 13 days
Method in brief: as §1

[4] = system: Solanum nigrum (SOLNI); test: Pre-emergence herbicidal glasshouse test on Solanum nigrum; settings: pre-emergence; 1000 g/h; evaluated after 13 days
Method in brief: as §1

[5] = system: Amaranthus retoflexus (AMARE); test: Pre-emergence herbicidal glasshouse test on Amaranthus retoflexus; settings: pre-emergence; 1000 g/h; evaluated after 13 days
Method in brief: as §1

[6] = system: Ipomoea hederacea (IPOHE); test: Pre-emergence herbicidal glasshouse test on Ipomoea hederacea; settings: pre-emergence; 1000 g/h; evaluated after 13 days
Method in brief: as §1

[7] = system: Alopecurus myosuroides (ALOMY); test: Post-emergence herbicidal glasshouse test on Alopecurus myosuroides; settings: post-emergence; 1000 g/h; evaluated after 13 days
Method in brief: as §1

[8] = system: Setaria faberi (SETFA); test: Post-emergence herbicidal glasshouse test on Setaria faberi; settings: post-emergence; 1000 g/h; evaluated after 13 days
Method in brief: as §1

[9] = system: Echinochloa crus-galli (ECHCG); test: Post-emergence herbicidal glasshouse test on Echinochloa crus-galli; settings: post-emergence; 1000 g/h; evaluated after 13 days
Method in brief: as §1

[10] = system: Solanum nigrum (SOLNI); test: Post-emergence herbicidal glasshouse test on Solanum nigrum; settings: post-emergence; 1000 g/h; evaluated after 13 days
Method in brief: as §1

[11] = system: Amaranthus retoflexus (AMARE); test: Post-emergence herbicidal glasshouse test on Amaranthus retoflexus; settings: post-emergence; 1000 g/h; evaluated after 13 days
Method in brief: as §1

[12] = system: Ipomoea hederacea (IPOHE); test: Post-emergence herbicidal glasshouse test on Ipomoea hederacea; settings: post-emergence; 1000 g/h; evaluated after 13 days
Method in brief: as §1

Compound | PRE Application ALOMY herbicidal damage (five point scale) [1] | PRE Application SETFA herbicidal damage (five point scale) [2] | PRE Application ECHCG herbicidal damage (five point scale) [3] | PRE Application SOLNI herbicidal damage (five point scale) [4] | PRE Application AMARE herbicidal damage (five point scale) [5] | PRE Application IPOHE herbicidal damage (five point scale) [6] | POST Application ALOMY herbicidal damage (five point scale) [7] | POST Application SETFA herbicidal damage (five point scale) [8] | POST Application ECHCG herbicidal damage (five point scale) [9] | POST Application SOLNI herbicidal damage (five point scale) [10] | POST Application AMARE herbicidal damage (five point scale) [11] | POST Application IPOHE herbicidal damage (five point scale) [12]
Cn1ncc(-n2ccc(C(F)(F)F)c(-c3ccc(C#N)cc3)c2=O)c(O)c1=O [Compound 7.031] | 5 (5=80-100% damage) | 5 (5=80-100% damage) | 5 (5=80-100% damage) | 5 (5=80-100% damage) | 5 (5=80-100% damage) | 5 (5=80-100% damage) | 5 (5=80-100% damage) | 5 (5=80-100% damage) | 5 (5=80-100% damage) | 5 (5=80-100% damage) | 5 (5=80-100% damage) | 5 (5=80-100% damage)
Cc1ccc(F)cc1-c1cnn(C)c(=O)c1O [Compound 1.094] | 1 (1=0-19% damage) | 1 (1=0-19% damage) | 1 (1=0-19% damage) | 1 (1=0-19% damage) | 1 (1=0-19% damage) | 1 (1=0-19% damage) | 1 (1=0-19% damage) | 1 (1=0-19% damage) | 1 (1=0-19% damage) | 2 (2=20-39% damage) | 1 (1=0-19% damage) | 1 (1=0-19% damage)
Cn1ncc(-c2cccn(-c3cccc(Cl)c3)c2=O)c(O)c1=O [Compound 1.143] | 2 (2=20-39% damage) | 1 (1=0-19% damage) | 1 (1=0-19% damage) | 1 (1=0-19% damage) | 3 (3=40-59% damage) | 1 (1=0-19% damage) | 2 (2=20-39% damage) | 1 (1=0-19% damage) | 2 (2=20-39% damage) | 4 (4=60-79% damage) | 1 (1=0-19% damage) | 1 (1=0-19% damage)
CCOc1cccc(-c2c(C(F)(F)F)ccn(-c3cnn(C)c(=O)c3O)c2=O)c1 [Compound 7.016] | 2 (2=20-39% damage) | 2 (2=20-39% damage) | 2 (2=20-39% damage) | 5 (5=80-100% damage) | 5 (5=80-100% damage) | 1 (1=0-19% damage) | 2 (2=20-39% damage) | 2 (2=20-39% damage) | 2 (2=20-39% damage) | 5 (5=80-100% damage) | 5 (5=80-100% damage) | 1 (1=0-19% damage)
Cn1ncc(-n2ccc(C(F)(F)F)c(N3CCOCC3)c2=O)c(O)c1=O [Compound 1.026] | 5 (5=80-100% damage) | 5 (5=80-100% damage) | 5 (5=80-100% damage) | 5 (5=80-100% damage) | 5 (5=80-100% damage) | 5 (5=80-100% damage) | 5 (5=80-100% damage) | 5 (5=80-100% damage) | 5 (5=80-100% damage) | 5 (5=80-100% damage) | 5 (5=80-100% damage) | 5 (5=80-100% damage)
COCCn1cccc(-c2cnn(C)c(=O)c2O)c1=O [Compound 9.009] | 1 (1=0-19% damage) | 1 (1=0-19% damage) | 1 (1=0-19% damage) | 1 (1=0-19% damage) | 1 (1=0-19% damage) | 1 (1=0-19% damage) | 2 (2=20-39% damage) | 3 (3=40-59% damage) | 3 (3=40-59% damage) | 5 (5=80-100% damage) | 4 (4=60-79% damage) | 3 (3=40-59% damage)
Cc1c(-c2c(C3CC3)nn(C)c(=O)c2O)ccc(S(C)(=O)=O)c1C1=NOCC1 [Compound 2.019] | 4 (4=60-79% damage) | 2 (2=20-39% damage) | 5 (5=80-100% damage) | 5 (5=80-100% damage) | 5 (5=80-100% damage) | 4 (4=60-79% damage) | 5 (5=80-100% damage) | 4 (4=60-79% damage) | 4 (4=60-79% damage) | 5 (5=80-100% damage) | 5 (5=80-100% damage) | 5 (5=80-100% damage)
CC(C)N(C)S(=O)(=O)c1ccc(-c2cnn(C)c(=O)c2O)c(S(C)(=O)=O)c1 [Compound 2.038] | 5 (5=80-100% damage) | 4 (4=60-79% damage) | 5 (5=80-100% damage) | 5 (5=80-100% damage) | 5 (5=80-100% damage) | 4 (4=60-79% damage) | 4 (4=60-79% damage) | 5 (5=80-100% damage) | 5 (5=80-100% damage) | 5 (5=80-100% damage) | 5 (5=80-100% damage) | 4 (4=60-79% damage)
Cc1c(-c2cnn(C)c(=O)c2O)ccc(S(C)(=O)=O)c1C1=NOCC1 [Compound 1.018] | 2 (2=20-39% damage) | 4 (4=60-79% damage) | 5 (5=80-100% damage) | 5 (5=80-100% damage) | 5 (5=80-100% damage) | 5 (5=80-100% damage) | 4 (4=60-79% damage) | 5 (5=80-100% damage) | 5 (5=80-100% damage) | 5 (5=80-100% damage) | 5 (5=80-100% damage) | 5 (5=80-100% damage)
Cn1ncc(-c2ccc(Cl)cc2[N+](=O)[O-])c(O)c1=O [Compound 1.109] | 1 (1=0-19% damage) | 1 (1=0-19% damage) | 1 (1=0-19% damage) | 2 (2=20-39% damage) | 5 (5=80-100% damage) | 1 (1=0-19% damage) | 1 (1=0-19% damage) | 1 (1=0-19% damage) | 2 (2=20-39% damage) | 4 (4=60-79% damage) | 5 (5=80-100% damage) | 4 (4=60-79% damage)
